“Also recorded” adds a separate entry of the source.
Tests used:
[1] = molecular target: T1, PqsR (Pseudomonas aeruginosa, UniProt Q9I4X0); settings: read-out: EC50 of PQS for pqsA::lux expression; PAO1-L ΔpqsA pqsA::lux, without lactam; cited from earlier work
T1 construct: By using the AQ-non producing P. aeruginosa strain PAO1-L ΔpqsA, pqsA::lux; endogenous in cells; host or cells: P. aeruginosa PAO1-L ΔpqsA, pqsA::lux

[2] = tested on: P. aeruginosa PAO1 pqsA::lux; test: pqsA::lux promoter fusion expression in P. aeruginosa PAO1-L biosensor (AQ-dependent quorum sensing); assay type: cell-based, Pseudomonas aeruginosa; settings: for extent of inhibition of light output / pqsA expression at high concentrations: PAO1-L pqsA::lux; for IC50: Pseudomonas aeruginosa, PAO1, read-out: IC50 for inhibition of pqsA::lux expression
Protocol: The expression of rhl and las AHL- and the pqsA AQ-synthase genes was evaluated using lux-based lasl (FIG. 1), rhll (FIG. 2) and pqsA (FIG. 3) chromosomally integrated promoter fusions. Luminescence was quantified as a function of bacterial growth. The applicant further determined that none of the lactams is growth inhibitory at 100 μM using a large number of strains (figure not shown).
To determine the relative inhibitory activities (IC50s) of 4-(4-chlorophenyl)-5-methylene-pyrrol-2-one (Ref. 488) and 5-methylene-4-(p-tolyl)pyrrol-2-one (Ref. 491), dose response curves were constructed using the same biosensor strain (P. aeruginosa PAO1 pqsA::lux; Fletcher et al, 2007; Ilangovan et al 2013). This strain produces light in response to the endogenous production of AQs such as PQS and HHQ.

[3] = molecular target: T1, PqsR; test: PQS-dependent expression of pqsA::lux in AQ-non producing PAO1-L ΔpqsA (PqsR antagonism); assay type: cell-based
Protocol: By using the AQ-non producing P. aeruginosa strain PAO1-L ΔpqsA, pqsA::lux, the EC50 value for the native PqsR agonist, PQS was calculated as ˜2 μM (Ilangovan et al. 2013).
The experiment shown in FIG. 8 was then repeated using 4-(4-chlorophenyl)-5-methylene-pyrrol-2-one (Ref. 488) concentrations of 0, 50, 100 and 200 μM.
A partial agonist is a molecule that can bind to and activate a receptor resulting in a non-complete response compared with a full agonist. […] This contrasts with its activity as an antagonist in the presence of 10 or 40 μM PQS.

[4] = tested on: P. aeruginosa strain PAO1-L; test: Pyocyanin production by PAO1-L, visually assessed; assay type: cell-based, Pseudomonas aeruginosa; settings: 100 μM (vial 2), 8 h at 37° C., FIG. 5
Source text: Pyocyanin is a blue redox-active secondary metabolite and a putative signalling molecule in P. aeruginosa (Jayaseelan et al, 2014). The pyocyanin biosynthetic (phz) genes are regulated by QS and in part via the transcriptional regulator PqsR acting through PqsE (Rampioni et al 2011).
Although qualitative, this observation offers further confirmation of the inhibitory effects of lactam 4-(4-chlorophenyl)-5-methylene-pyrrol-2-one (Ref. 488) on AQ-dependent QS.

[5] = tested on: PAO1-N ΔpqsAHR pqsA'::lux; test: PqsR-independent expression of pqsA'::lux in PAO1-N ΔpqsAHR; assay type: cell-based, Pseudomonas aeruginosa; settings: presence or absence of 40 μM PQS, FIG. 11
Source text: PQS is capable of weakly activating pqsA in the absence of PqsR via a mechanism that is not fully understood but appears to depend on the iron chelating properties of PQS. The aim of this experiment was to clarify whether lactam 4-(4-chlorophenyl)-5-methylene-pyrrol-2-one (Ref. 488) is also inhibitory for pqsA expression via the PqsR independent pathway. As previously described, the pqsA′::lux biosensor based on the triple mutant PAO1-N ΔpqsAHR cannot produce AQs and lacks pqsR but still responds to exogenous PQS. This response is however much weaker that the PqsR-dependent response.

[6] = tested on: PqsABCD; test: HHQ production by PAO1-N ΔpqsAHR pBBR-pqsABCD, TLC with AQ biosensor overlay; assay type: cell-based, Pseudomonas aeruginosa; settings: 488 200 μM, overnight in LB, FIG. 13
Source text: To determine whether 4-(4-chlorophenyl)-5-methylene-pyrrol-2-one (Ref. 488) is capable of inhibiting the enzymes (PqsABCD) involved in AQ biosynthesis, the P. aeruginosa PAO1-N ΔpqsAHR was exploited. This mutant cannot produce AQs because the genes coding for the key biosynthetic enzymes (PqsA and PqsH) and regulation (PqsR) have been deleted. To restore AQ production in a PqsR-independent manner in PAO1-N ΔpqsA, the pqsABCD genes were introduced on a plasmid (pBBR pqsABCD; Niewerth et al. 2011). P. aeruginosa PAO1-N ΔpqsAHR and P. aeruginosa PAO1-N ΔpqsAHR pBBR pqsABCD were both incubated overnight in LB with and without 4-(4-chlorophenyl)-5-methylene-pyrrol-2-one (Ref. 488) (200 μM), resuspended to an OD600 1.0. The cultures were extracted with acidified ethyl acetate, the organic phase removed, dried and resuspended in methanol subjected to thin layer chromatography (TLC).
After chromatography using a dichloromethane-methanol mobile phase, the TLC plates were overlaid with a thin agar layer containing the AQ biosensor strain PAO1-L ΔpqsA CTX::pqsA′-luxCDABE (Fletcher et al. 2007) incubated and examined for reporter output (FIG. 13). […] The biosensor strain produces light (FIG. 13 panel C) and pyocyanin (FIG. 13 panel B) in response to AQs that bind to PqsR and activate the pqsA promoter.

T1 sequence (Q9I4X0 whole entry): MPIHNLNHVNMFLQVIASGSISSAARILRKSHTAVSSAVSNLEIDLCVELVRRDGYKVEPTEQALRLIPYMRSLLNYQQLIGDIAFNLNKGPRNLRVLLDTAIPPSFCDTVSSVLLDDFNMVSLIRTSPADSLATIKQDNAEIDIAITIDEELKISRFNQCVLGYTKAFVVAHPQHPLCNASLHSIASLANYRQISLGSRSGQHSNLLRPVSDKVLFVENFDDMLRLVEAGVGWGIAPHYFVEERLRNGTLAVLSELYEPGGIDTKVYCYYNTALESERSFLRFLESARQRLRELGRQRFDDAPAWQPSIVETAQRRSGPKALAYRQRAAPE

Row | Compound | EC50 [1] [µM] | extent of inhibition of light output / pqsA expression at high concentrations [2] | IC50 [2] [µM] | relative inhibition of PqsR-dependent pqsA::lux promoter fusion in screening ([2]; lactams at 100 μM, FIG. 3) | mode of antagonism of PQS-dependent pqsA::lux expression ([3]; 488 at 0, 50, 100 and 200 μM, FIG. 9) | restoration of light output by PQS in the presence of 488 ([3]; 488 at 50, 100, 200 μM, PAO1-L ΔpqsA, FIG. 9) | partial agonist activity (activation of pqsA expression) ([3]; PAO1-L ΔpqsA pqsA'::lux, concentrations up to 800 μM, FIG. 10) | fold increase of PQS EC50 caused by the lactam ([3]; fixed concentration of 488 (215 μM), range of PQS concentrations) [fold] | pyocyanin production in culture supernatant [4] | effect on PqsR-independent expression of pqsA [5] | effect on HHQ biosynthesis [6]
1 | CCCCCCCc1[nH]c2ccccc2c(=O)c1O [PQS, 2-heptyl-3-hydroxy-4-(1H)-quinolone] | ~2 | – | – | – | – | – | – | – | – | – | –
2 | C=C1NC(=O)C=C1c1ccc(C)cc1 [Ref. 491, 5-methylene-4-(p-tolyl)pyrrol-2-one] | – | did not inhibit pqsA expression as strongly; also recorded: did not give complete knock out at higher concentration | 44 | – | – | – | – | – | – | – | –
3 | C=C1NC(=O)C=C1c1ccc(Cl)cc1 [Ref. 488, 4-(4-chlorophenyl)-5-methylene-pyrrol-2-one] | – | completely inhibited light output; also recorded: fully knock out the PQS | 22 | most potent inhibitor | competitive antagonist | fully restoring light output in the presence of 50 μM but not 100 μM or 200 μM | no partial agonist activity | ~15 | absence of green pigmentation | small inhibitory effect | did not inhibit HHQ biosynthesis

From patent US11160787B2, “4-(4-chlorophenyl)-5-methylene-pyrrol-2-one and 5-methylene-4-(p-tolyl)pyrrol-2-one for use in the treatment of gram negative bacterial infections” (priority 2016, dated 2021)
